Converted amounts (≈) assume the structure as drawn. “And” between values parts separate entries of the source, which are not always exact repeats. Equal entries are not always repeated. Where two headings read alike, the source gives them in different places.
Experiments:
[1] = Dynamic covalent ring opening with thiol 10, 1H NMR kinetics; assay type: physicochemical; conditions: pD 2.7
Protocol: The dynamic covalent opening of CTO 3 with thiols yields product 9 with a disulfide and a sulfinate (Figure 3B). Consistent with short chalcogen bonds found in silico, the opening of CTO 3 was instantaneous on an NMR timescale with most thiols. To decelerate ring opening, bulky thiols were considered in combination with lowered pH to deactivate the nucleophile. With N-Ac-D-penicillamine 10, the opening of 5 mM CTO 3 in phosphate buffer/DMSO-d6 9:1 was still immediate at pD 6.7 but became detectable in ^1H NMR spectroscopy kinetics under more acidic conditions. The ring-opening rate constants k^O were estimated by fitting the initial velocities to second-order kinetics. Only lower bound rates were approximated from the earliest determined substrate conversions when reactions were still too fast despite the unfavorable conditions. At pD 5.4, dynamic covalent ring opening of CTO 3 with equimolar tertiary thiol 10 occurred with k^O > 0.49 M^–1 s^–1 and equilibrated at K = 6.0 × 10^3 M^–1 (Table 1, entry 1, Figures S4 and S5). At pD 2.7, further deceleration to k^O = 0.10 M^–1 s^–1 shifted the equilibrium to K = 500 M^–1 (Table 1, entry 2, Figures S6 and S7). […] At equilibrium, the concentration of thiol 10 further decreased slowly due to oxidation into the homodimer (Figure 3C, diamonds).
Equilibrium constants for reactions with two reactants A and B and a product C are […]
3.1.1. Dynamic Covalent Ring Opening with Thiols
General procedure A (at 5 mM): To a solution of deuterated sodium phosphate (200 mM in D 2O, pD 2.7 or 5.4, 180 mM final concentration), a stock solution of substrate (0.10 M in DMSO-d6, 5.0 mM final concentration) was added and stirred. Then a stock solution of 10 (0.10 M in DMSO- d6, 5.0 mM final concentration) was added and vigorously stirred at room temperature. The solution was transferred immediately to an NMR tube and NMR data were recorded repeatedly. The concentration of the substrate or thiol at each time plot was calculated by comparing the integrals of the peaks indicated with arrows in the figures, and plotted. The data points were fitted to obtain k1 with the Equation (S6) or (S7) using Graphpad Prism.
General procedure B (at 2 mM): To a solution of deuterated sodium phosphate (200 mM in D 2O, pD 2.7 or 5.4, 180 mM final concentration), DMSO- d6 (10% DMSO- d6 in the reaction mixture) and a stock solution of substrate (0.10 M in DMSO- d6, 2.0 mM final concentration) were added and stirred. Then a stock solution of 10 (0.10 M in DMSO- d6, 2.0 mM final concentration) was added and vigorously stirred at room temperature. The solution was transferred immediately to an NMR tube and NMR data were recorded repeatedly. The concentration of the substrate or thiol at each time plot was calculated by comparing the integrals of the peaks indicated with arrows in the figures, and plotted. The data points were fitted to obtain k1 with the Equation (S6) or (S7) using Graphpad Prism.
General procedure C (for thiosulfinates): To a solution of deuterated sodium phosphate (200 mM in D 2O, pD 5.4, 170 mM final concentration), a stock solution of substrate (0.10 M in DMSO- d6, 5.0 mM final concentration) was added and stirred. Then a stock solution of 10 (0.10 M in DMSO- d6, 10 mM final concentration) was added and vigorously stirred at room […]
data points were fitted to obtain k1 with the Equation (S14) or (S16) using Graphpad Prism. […]
3.1.2. Dependence of Ring Opening on Proticity
A mixture of deuterated phosphoric acid and NaOD (30% in D 2O), which gave pD 2.7 in D2O, was used as buffer in all solvent mixtures. To a solution of deuterated sodium phosphate (20 mM final concentration) in a mixture of D 2O and DMSO- d6 (540 μL, final D 2O content: […]
concentration) was added and stirred. Then a stock solution of 10 (0.10 M in DMSO- d6, 5.0 mM final concentration) was added and vigorously stirred at room temperature. The solution was transferred immediately to an NMR tube and 1H NMR data were recorded repeatedly. […]

[2] = test system: HK cells, transporter 31; experiment: HCHT imaging: inhibition of cytosolic delivery of ETP transporter 31; assay type: cell-based, Human; conditions: inhibitor 1 h; for IC50 / IC15: Homo sapiens; for IC50: read-out: IC50 (concentration needed to reach 50% inhibition), transporter 31 10 μM; for IC15: read-out: MIC (concentration needed to reach 15% inhibition), transporter 31 10 μM; for MIC (concentration needed to reach 15% inhibition): transporter 31 10 μM
Protocol: (§1) Uptake inhibition was measured by the automated HCHT imaging used already to elaborate on cytosolic delivery. For inhibitor screening, HK cells in multiwell plates were incubated with increasing concentrations of inhibitors, followed by fluorescent transporters 28, 31, and 32 at a constant concentration. […] If inhibitors are removed before the addition of transporters 28, 31, and 32, the method is referred to as “pre-incubation”. This is of interest to minimize exchange between the transporter and the inhibitor but is often problematic because dynamic covalent exchange between the inhibitor and cellular target can also be reversed and thus lost. The complementary “co-incubation” operates without inhibitor removal before the addition of transporters 28, 31, and 32.
(§2) 536/40 nm emission filter, and red with 531/40 nm excitation filter and 593/40 nm emission […]
(§3) 4.3. HCHT Inhibitor Screening
(§4) Pre-Incubation Method. As in ref. S1. HeLa Kyoto cells were seeded at 8 ×10^4 cells/mL in FluoroBrite DMEM + 10% FBS on μ-Plate 96-well Black ibiTreat sterile and incubated at 37 °C with 5% CO 2 for 24 h. Then, the medium was removed and cells were washed with PBS ([…]), fresh FluoroBrite DMEM medium (4 × 150 μL/well) was added into the cells using a plate washer (Biotek EL406®), keeping a final volume of 135 μL/well. Different concentrations of the inhibitors were prepared by serial dilution with 10% final concentration DMSO (10× in PBS). The solution of compounds 4 and 33 was prepared final DMSO concentration of 10% in each dilution (10× in PBS). These inhibitor solutions (10× final concentration), transporter 28 (10× in DMEM), transporters 31 and 32 (10× in PBS) a solution of HOE (100 μg/mL) and PI (10 μg/mL) in PBS were prepared freshly in a 96-well V-bottom plate before adding to the cells. The inhibitor solutions from the V-bottom plate were added to the cells (15 μL/well) in a final volume of 150 μL/well using an electronic multichannel pipette and cells were incubated for 1 h at 37 °C with 5% CO 2. After this incubation, cells were washed again with PBS and DMEM using the plate washer (in the way mentioned above), and transporter 28 , 31 or 32 from the V-bottom plate was added (15 μL/well) to the cells in a final volume of 150 μL/well. A final concentration of each transporter 28 , 31 and 32 was 5 μM, 10 μM and 0.5 μM, respectively, except for the control wells, where only PBS was added (15 μL/well). Cells treated with transporter 28 or 31 were incubated for 30 min, and cells treated with 32 were incubated for 2 h at 37 °C with 5% CO 2. After that, the cells were washed with PBS and DMEM using the plate washer, and the solution of Hoechst 33342 and PI from the V-bottom plate was added (15 μL/well) to the cells in a final volume of 150 μL/well. After 15 min of incubation at 37 °C with 5% CO 2, the cells were washed and kept in clean FluoroBrite
(§5) DMEM. For live cell imaging, samples were kept at 37 °C with 5% CO 2 during the microscope imaging. The distribution of fluorescence stained cells was analyzed without fixing using an […]

[3] = test system: HeLa Kyoto cells; experiment: Relative viability (HOE/PI) in HCHT screening
Protocol: One advantage of HCHT imaging of cellular uptake compared to flow cytometry[38],[42],[43] is that it simultaneously gives information on toxicity and intracellular localization. […] Information on the intracellular localization of reporters can be quantified through segmentation of cellular compartments stained with specific markers.[52]
as §1
Relative cell viability ( RV) for each condition in the presence of inhibitors was calculated […]
of the relative cell viability ( RVrel) to the concentration of inhibitors ( cinhibitor ) was plotted and fitted with Equation (S19) to retrieve the concentration causing 50% cell growth inhibition (RV50) value and the Hill coefficient ( n).

[4] = in vitro; conditions: human
[5] = test system: HK cells, transporter 28; experiment: HCHT imaging: inhibition of cytosolic delivery of CTO transporter 28; assay type: cell-based, Human; conditions: inhibitor 1 h; for IC15: read-out: MIC (concentration needed to reach 15% inhibition), transporter 28 5 μM
Protocol: as §1, §2, §3, §4, §5

[6] = test system: trypsin; experiment: Trypsin inhibition (preliminary, not shown); assay type: biochemical; conditions: 10 μM; preliminary results, not shown
[7] = molecular target: cathepsin L (Homo sapiens, UniProt P07711); experiment: Cathepsin L inhibition (preliminary, not shown); assay type: biochemical; conditions: 10 μM; preliminary results
[8] = molecular target: cathepsin B (Homo sapiens, UniProt P07858); experiment: Cathepsin B inhibition (preliminary, not shown); assay type: biochemical; conditions: 10 μM; preliminary results
[9] = test system: HK cells, transporter 32; set-up: method as in PMID 34173696; key to inhibition of OPS 32 uptake (heatmap): –: −: inactive; ++: qualitative inhibition of SC2 uptake; conditions: cited from earlier work
[10] = Homo sapiens, 1 h, read-out: IC50 (concentration needed to reach 50% inhibition), transporter 28 5 μM, co-incubation (C)
[11] = Homo sapiens, 1 h, co-incubation (C)
[12] = with transporter 28, co-incubation (C)
[13] = Homo sapiens, 1 h, pre-incubation (P)
[14] = Homo sapiens, read-out: IC50 (concentration needed to reach 50% inhibition), transporter 28 5 μM, pre-incubation (P)
[15] = transporter 28 5 μM, pre-incubation (P)
[16] = transporter 28 5 μM, co-incubation (C)

Chain of cathepsin L (P07711 114-333, species assumed): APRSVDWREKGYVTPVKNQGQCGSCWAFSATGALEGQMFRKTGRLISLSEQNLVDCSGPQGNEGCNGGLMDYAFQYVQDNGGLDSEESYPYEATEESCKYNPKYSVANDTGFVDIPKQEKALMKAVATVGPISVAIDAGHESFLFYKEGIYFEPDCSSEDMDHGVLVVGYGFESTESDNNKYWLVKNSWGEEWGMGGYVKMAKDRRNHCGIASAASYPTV

Row | SMILES | IC50 ([2]; 1 h, co-incubation (C)) | IC15 ([2]; 1 h, co-incubation (C)) | viability at 7 h, 5 µM [4] | IC50 [5, 10] | IC15 [5, 11] | RV50 (concentration needed to lower relative viability by 50%) [3, 12] | viability at 7 h, 10 µM [4] | IC15 [5, 13] | IC50 [5, 14] | MIC (concentration needed to reach 15% inhibition) [5, 15] | MIC (concentration needed to reach 15% inhibition) [5, 16] | also measured
1 | CC1(C)O[C@H]2CSS(=O)(=O)C[C@H]2O1 [Compound 13] | > 10 µM | > 10 µM | 125 ± 5% |  |  |  |  |  |  |  |  | k^O, rate constant of ring opening (or equivalent for acyclic controls) ([1]; equimolar 10, rt, 90% D2O, Na+ phosphate 180 mM, substrate 2 mM): 2.3 M^–1 s^–1; krel^O, rate constant of ring opening relative to 3 ([1]; 90% D2O, 2 mM): 23; ring-opening rate relative to acyclic control 14 (fold) ([1]; with thiol 10, 2 mM): about 4 ×; RV50 (concentration needed to lower relative viability by 50%) ([3]; with transporter 31, co-incubation (C)): 29 ± 6 µM
2 | CC(C)(C)[Si](C)(C)OC1CS(=O)(=O)SCC1OC(=O)NCCCCCCNC(=O)OC1CSS(=O)(=O)CC1O[Si](C)(C)C(C)(C)C (centres unmarked) [Compound 4] |  |  |  | 16 ± 7 µM | 0.3 µM | >5 µM | 103% |  |  |  |  | IC50 ([5]; read-out: IC50 (concentration needed to reach 50% inhibition), transporter 28 5 μM, co-incubation (C)): ~15 µM; inhibition of trypsin [6]: > 80%; inhibition of cathepsin L (in words) [7]: neither cathepsin L nor B; inhibition of cathepsin B (in words) [8]: neither cathepsin L nor B
3 | O=C(O)Cn1[se]c2ccccc2c1=O [Compound 45, reference compound] | 8 µM | 2.2 µM |  |  |  |  |  | 1.2 µM | 8 µM | 1 µM (≈ 0.256 µg/mL) |  | IC15 ([2]; 1 h, pre-incubation (P)): < 1 µM; IC50 ([2]; pre-incubation (P)): 10 µM; MIC (concentration needed to reach 15% inhibition) ([2]; co-incubation (C)): 2 µM; MIC (concentration needed to reach 15% inhibition) ([2]; pre-incubation (P)): <1 µM; inhibition of OPS 32 uptake (heatmap) ([9]; pre-incubation conditions): –; IC50 ([9]; read-out: IC50 (concentration needed to reach 50% inhibition), transporter 32 0.5 or 1 μM, pre-incubation (P)): > 100 µM; MIC (concentration needed to reach 15% inhibition) ([9]; transporter 32 0.5 or 1 μM, pre-incubation (P)): >100 µM; viability at 7 h, 50 µM [4]: 81%
4 | CC(C)(C)[Si](C)(C)O[C@H]1CS(=O)(=O)SC[C@H]1OC(=O)NCCNC(=O)CC(O)(CC(=O)NCCNC(=O)O[C@H]1CSS(=O)(=O)C[C@H]1O[Si](C)(C)C(C)(C)C)C(=O)NCCNC(=O)O[C@@H]1CSS(=O)(=O)C[C@@H]1O[Si](C)(C)C(C)(C)C (some centres unmarked) [Compound 42] |  |  |  |  |  |  | 107% | 1.8 µM | 5.1 ± 0.4 µM | 2 µM (≈ 2.58 µg/mL) |  | IC50 ([5]; read-out: IC50 (concentration needed to reach 50% inhibition), transporter 28 5 μM, pre-incubation (P)): 5 µM; RV50 (concentration needed to lower relative viability by 50%) ([3]; with transporter 28, pre-incubation (P)): 22 ± 3 µM and 22 µM
5 | O=C(NCCCCCCNC(=O)O[C@H]1CSS(=O)(=O)C[C@H]1O)O[C@H]1CSS(=O)(=O)C[C@H]1O [Compound 41] |  |  | 100% | 8 µM | 1 µM | >50 µM |  |  |  |  | 1 µM | 
6 | O=C(NCCCCCCNC(=O)O[C@H]1CSS(=O)(=O)C[C@H]1OCc1ccccc1)O[C@H]1CSS(=O)(=O)C[C@H]1OCc1ccccc1 [Compound 33] |  |  |  | > 5 µM | 1.3 µM | >5 µM | 107% |  |  |  | 1 µM | 

Reference: paper PMC9088311, “Cyclic Thiosulfonates for Thiol-Mediated Uptake: Cascade Exchangers, Transporters, Inhibitors” (JACS Au, 2022)
